The NIST ThermoML archive (doi:10.1021/je400486p)

Assay: xn = mol fraction of the nth substance listed
Settings: 101.3 kPa, Liquid; for viscosity: Concentric cylinders viscometry; for mass density: Vibrating tube method

COCCOCCOCCOCCOC [2,5,8,11,14-pentaoxapentadecane] + CCC(C)O
Settings	mass density [kg/m3]	viscosity [mPa·s]
288.15 K, x2 = 0	1015.63	4.341
288.15 K, x2 = 0.1007	1006.23	4.092
288.15 K, x2 = 0.2003	995.702	3.792
288.15 K, x2 = 0.3015	983.46	3.531
288.15 K, x2 = 0.3991	969.921	3.342
288.15 K, x2 = 0.5011	953.53	3.157
288.15 K, x2 = 0.6024	934.399	2.972
288.15 K, x2 = 0.6997	912.674	2.853
288.15 K, x2 = 0.7998	885.897	2.874
288.15 K, x2 = 0.9004	852.63	3.166
293.15 K, x2 = 0	1011	3.834
293.15 K, x2 = 0.1007	1001.61	3.582
293.15 K, x2 = 0.2003	991.093	3.32
293.15 K, x2 = 0.3015	978.877	3.099
293.15 K, x2 = 0.3991	965.365	2.941
293.15 K, x2 = 0.5011	949.011	2.776
293.15 K, x2 = 0.6024	929.939	2.61
293.15 K, x2 = 0.6997	908.32	2.498
293.15 K, x2 = 0.7998	881.561	2.497
293.15 K, x2 = 0.9004	848.418	2.705
298.15 K, x2 = 0	1006.36	3.38
298.15 K, x2 = 0.1007	996.991	3.158
298.15 K, x2 = 0.2003	986.495	2.937
298.15 K, x2 = 0.3015	974.305	2.75
298.15 K, x2 = 0.3991	960.825	2.603
298.15 K, x2 = 0.5011	944.498	2.461
298.15 K, x2 = 0.6024	925.479	2.316
298.15 K, x2 = 0.6997	903.877	2.21
298.15 K, x2 = 0.7998	877.228	2.187
298.15 K, x2 = 0.9004	844.144	2.337
303.15 K, x2 = 0	1001.73	3.004
303.15 K, x2 = 0.1007	992.377	2.805
303.15 K, x2 = 0.2003	981.894	2.627
303.15 K, x2 = 0.3015	969.723	2.472
303.15 K, x2 = 0.3991	956.258	2.344
303.15 K, x2 = 0.5011	939.966	2.205
303.15 K, x2 = 0.6024	920.978	2.068
303.15 K, x2 = 0.6997	899.43	1.967
303.15 K, x2 = 0.7998	872.81	1.933
303.15 K, x2 = 0.9004	839.81	2.037
308.15 K, x2 = 0	997.104	2.691
308.15 K, x2 = 0.1007	987.755	2.513
308.15 K, x2 = 0.2003	977.28	2.363
308.15 K, x2 = 0.3015	965.119	2.229
308.15 K, x2 = 0.3991	951.674	2.111
308.15 K, x2 = 0.5011	935.407	1.984
308.15 K, x2 = 0.6024	916.445	1.859
308.15 K, x2 = 0.6997	894.917	1.762
308.15 K, x2 = 0.7998	868.357	1.72
308.15 K, x2 = 0.9004	835.418	1.786
313.15 K, x2 = 0	992.481	2.426
313.15 K, x2 = 0.1007	983.135	2.269
313.15 K, x2 = 0.2003	972.669	2.139
313.15 K, x2 = 0.3015	960.509	2.022
313.15 K, x2 = 0.3991	947.072	1.914
313.15 K, x2 = 0.5011	930.813	1.796
313.15 K, x2 = 0.6024	911.86	1.681
313.15 K, x2 = 0.6997	890.367	1.59
313.15 K, x2 = 0.7998	863.83	1.54
313.15 K, x2 = 0.9004	830.95	1.575
318.15 K, x2 = 0	987.859	2.199
318.15 K, x2 = 0.1007	978.511	2.069
318.15 K, x2 = 0.2003	968.041	1.949
318.15 K, x2 = 0.3015	955.883	1.836
318.15 K, x2 = 0.3991	942.446	1.73
318.15 K, x2 = 0.5011	926.193	1.629
318.15 K, x2 = 0.6024	907.25	1.529
318.15 K, x2 = 0.6997	885.759	1.445
318.15 K, x2 = 0.7998	859.246	1.385
318.15 K, x2 = 0.9004	826.396	1.397
323.15 K, x2 = 0	983.234	2.006
323.15 K, x2 = 0.1007	973.877	1.892
323.15 K, x2 = 0.2003	963.397	1.787
323.15 K, x2 = 0.3015	951.237	1.687
323.15 K, x2 = 0.3991	937.792	1.591
323.15 K, x2 = 0.5011	921.533	1.495
323.15 K, x2 = 0.6024	902.591	1.402
323.15 K, x2 = 0.6997	881.097	1.32
323.15 K, x2 = 0.7998	854.581	1.259
323.15 K, x2 = 0.9004	821.735	1.243

CN1CCCC1=O [N-methylpyrrolidone] + CCC(C)O
Settings	mass density [kg/m3]	viscosity [mPa·s]
288.15 K, x2 = 0	1037.3	1.99
288.15 K, x2 = 0.1049	1014.52	1.984
288.15 K, x2 = 0.2001	993.63	1.974
288.15 K, x2 = 0.3009	971.257	1.972
288.15 K, x2 = 0.4019	948.589	2.005
288.15 K, x2 = 0.5003	926.282	2.032
288.15 K, x2 = 0.5995	903.599	2.118
288.15 K, x2 = 0.7004	880.362	2.302
288.15 K, x2 = 0.7985	857.64	2.618
288.15 K, x2 = 0.899	834.259	3.227
293.15 K, x2 = 0	1032.84	1.823
293.15 K, x2 = 0.1049	1010.11	1.815
293.15 K, x2 = 0.2001	989.247	1.801
293.15 K, x2 = 0.3009	966.914	1.798
293.15 K, x2 = 0.4019	944.287	1.817
293.15 K, x2 = 0.5003	922.02	1.839
293.15 K, x2 = 0.5995	899.376	1.905
293.15 K, x2 = 0.7004	876.183	2.048
293.15 K, x2 = 0.7985	853.51	2.29
293.15 K, x2 = 0.899	830.183	2.757
298.15 K, x2 = 0	1028.38	1.679
298.15 K, x2 = 0.1049	1005.69	1.664
298.15 K, x2 = 0.2001	984.854	1.652
298.15 K, x2 = 0.3009	962.556	1.647
298.15 K, x2 = 0.4019	939.97	1.655
298.15 K, x2 = 0.5003	917.742	1.67
298.15 K, x2 = 0.5995	895.133	1.72
298.15 K, x2 = 0.7004	871.975	1.832
298.15 K, x2 = 0.7985	849.341	2.019
298.15 K, x2 = 0.899	826.054	2.368
303.15 K, x2 = 0	1023.92	1.555
303.15 K, x2 = 0.1049	1001.27	1.538
303.15 K, x2 = 0.2001	980.46	1.524
303.15 K, x2 = 0.3009	958.194	1.514
303.15 K, x2 = 0.4019	935.644	1.516
303.15 K, x2 = 0.5003	913.448	1.522
303.15 K, x2 = 0.5995	890.869	1.56
303.15 K, x2 = 0.7004	867.739	1.645
303.15 K, x2 = 0.7985	845.132	1.792
303.15 K, x2 = 0.899	821.864	2.051
308.15 K, x2 = 0	1019.46	1.444
308.15 K, x2 = 0.1049	996.845	1.427
308.15 K, x2 = 0.2001	976.091	1.411
308.15 K, x2 = 0.3009	953.86	1.399
308.15 K, x2 = 0.4019	931.323	1.393
308.15 K, x2 = 0.5003	909.136	1.397
308.15 K, x2 = 0.5995	886.575	1.424
308.15 K, x2 = 0.7004	863.468	1.489
308.15 K, x2 = 0.7985	840.874	1.598
308.15 K, x2 = 0.899	817.592	1.786
313.15 K, x2 = 0	1015	1.346
313.15 K, x2 = 0.1049	992.413	1.327
313.15 K, x2 = 0.2001	971.652	1.311
313.15 K, x2 = 0.3009	949.443	1.297
313.15 K, x2 = 0.4019	926.949	1.285
313.15 K, x2 = 0.5003	904.8	1.285
313.15 K, x2 = 0.5995	882.258	1.303
313.15 K, x2 = 0.7004	859.157	1.351
313.15 K, x2 = 0.7985	836.567	1.431
313.15 K, x2 = 0.899	813.284	1.566
318.15 K, x2 = 0	1010.53	1.259
318.15 K, x2 = 0.1049	987.978	1.239
318.15 K, x2 = 0.2001	967.237	1.221
318.15 K, x2 = 0.3009	945.05	1.206
318.15 K, x2 = 0.4019	922.578	1.19
318.15 K, x2 = 0.5003	900.445	1.186
318.15 K, x2 = 0.5995	877.912	1.197
318.15 K, x2 = 0.7004	854.81	1.23
318.15 K, x2 = 0.7985	832.207	1.286
318.15 K, x2 = 0.899	808.882	1.379
323.15 K, x2 = 0	1006.06	1.182
323.15 K, x2 = 0.1049	983.533	1.161
323.15 K, x2 = 0.2001	962.815	1.141
323.15 K, x2 = 0.3009	940.651	1.124
323.15 K, x2 = 0.4019	918.196	1.104
323.15 K, x2 = 0.5003	896.069	1.098
323.15 K, x2 = 0.5995	873.531	1.103
323.15 K, x2 = 0.7004	850.415	1.124
323.15 K, x2 = 0.7985	827.785	1.162
323.15 K, x2 = 0.899	804.404	1.222
